pIC50: −log10 of the molar value.
Biological target: P2X7 receptor (Homo sapiens (Human), UniProt Q99572)
Test: P2X7 FLIPR assay: antagonism of BzATP response in 293 HEK cells stably expressing P2X7 receptor
Assay type: cell-based
Details: FLIPR fluorescence (Fluo-4), agonist BzATP, 293 HEK cells stably transfected with P2X7 receptor
Summary of the method: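 Antagonist IC50 derived from FLIPR Tetra Fluo-4 calcium signal evoked by BzATP. Compound pre-incubation was 30 min at room temperature on P2X7-expressing HEK293 cells, seeded 24 h before in low-serum medium and dye-loaded 30 min at 37 °C then 30 min at RT.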

P2X7 receptor, sequence (Q99572 whole entry): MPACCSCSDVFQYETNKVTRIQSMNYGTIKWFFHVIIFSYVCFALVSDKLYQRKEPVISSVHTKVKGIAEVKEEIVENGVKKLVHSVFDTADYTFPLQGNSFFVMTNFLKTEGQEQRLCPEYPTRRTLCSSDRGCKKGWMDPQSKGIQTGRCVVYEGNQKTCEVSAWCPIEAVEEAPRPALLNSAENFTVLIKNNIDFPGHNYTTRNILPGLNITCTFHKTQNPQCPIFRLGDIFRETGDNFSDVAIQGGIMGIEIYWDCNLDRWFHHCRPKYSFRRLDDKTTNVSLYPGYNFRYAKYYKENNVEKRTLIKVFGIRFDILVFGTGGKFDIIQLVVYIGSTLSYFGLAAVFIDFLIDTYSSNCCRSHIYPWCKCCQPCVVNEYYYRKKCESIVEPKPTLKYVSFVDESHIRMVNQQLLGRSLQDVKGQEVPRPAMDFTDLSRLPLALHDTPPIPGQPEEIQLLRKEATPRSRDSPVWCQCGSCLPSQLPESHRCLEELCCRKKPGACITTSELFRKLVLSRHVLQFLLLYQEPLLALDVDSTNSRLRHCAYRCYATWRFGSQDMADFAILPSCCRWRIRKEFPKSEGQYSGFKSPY

Structure (SMILES) | pIC50
O=C(NCC(c1cccnc1)N1CCOCC1)c1cccc(Cl)c1Cl (centres unmarked) [2,3-Dichloro-N-(2-morpholin-4-yl-2-pyridin-3-yl-ethyl)-benzamide] | 5.96
O=C(NCC(c1ccncc1)N1CCOCC1)c1cccc(Cl)c1Cl (centres unmarked) [2,3-Dichloro-N-(2-morpholin-4-yl-2-pyridin-4-yl-ethyl)-benzamide] | 6.12
O=C(NCC(c1cncnc1)N1CCOCC1)c1cccc(Cl)c1Cl (centres unmarked) [2,3-Dichloro-N-(2-morpholino-2-pyrimidin-5-yl-ethyl)benzamide] | 7.55
O=C(NCC(c1ccc(F)nc1)N1CCC(F)(F)CC1)c1cccc(Cl)c1Cl (centres unmarked) [2,3-Dichloro-N-[2-(4,4-difluoro-1-piperidyl)-2-(6-fluoro-3-pyridyl)ethyl]benzamide] | 9.05
O=C(NCC(c1ccc(C(F)(F)F)nc1)N1CCC(F)(F)CC1)c1cccc(Cl)c1Cl (centres unmarked) [2,3-Dichloro-N-[2-(4,4-difluoro-1-piperidyl)-2-[6-(trifluoromethyl)-3-pyridyl]ethyl]benzamide] | 8.89
O=C(NCC(c1ccc(F)cc1)N1CCC(F)(F)CC1)c1cccc(Cl)c1Cl (centres unmarked) [2,3-Dichloro-N-[2-(4,4-difluoro-piperidin-1-yl)-2-(4-fluoro-phenyl)-ethyl]-benzamide] | 9.48
O=C(NCC(c1ccc(Cl)cc1)N1CCOCC1)c1cccc(Cl)c1Cl (centres unmarked) [2,3-Dichloro-N-[2-(4-chloro-phenyl)-2-morpholin-4-yl-ethyl]-benzamide] | 9.22
O=C(NCC(c1ccc(F)cc1)N1CCOCC1)c1cccc(Cl)c1Cl (centres unmarked) [2,3-Dichloro-N-[2-(4-fluoro-phenyl)-2-morpholin-4-yl-ethyl]-benzamide] | 7.96
COc1ccc(C(CNC(=O)c2cccc(Cl)c2Cl)N2CCOCC2)cc1 (centres unmarked) [2,3-Dichloro-N-[2-(4-methoxy-phenyl)-2-morpholin-4-yl-ethyl]-benzamide] | 7.89
COc1ccc(C(CNC(=O)c2cccc(Cl)c2Cl)N2CCCCC2)cc1 (centres unmarked) [2,3-Dichloro-N-[2-(4-methoxy-phenyl)-2-piperidin-1-yl-ethyl]-benzamide] | 6.46
O=C(NCC(c1ccc(Cl)nc1)N1CCOCC1)c1cccc(Cl)c1Cl (centres unmarked) [2,3-Dichloro-N-[2-(6-chloro-3-pyridyl)-2-morpholino-ethyl]benzamide] | 8.41
O=C(NCC(c1ccc(C2CC2)nc1)N1CCOCC1)c1cccc(Cl)c1Cl (centres unmarked) [2,3-Dichloro-N-[2-(6-cyclopropyl-pyridin-3-yl)-2-morpholin-4-yl-ethyl]-benzamide] | 8.09
O=C(NC[C@H](c1ccc(Cl)cc1)N1CCOCC1)c1cccc(Cl)c1Cl [2,3-Dichloro-N-[(S)-2-(4-chloro-phenyl)-2-morpholin-4-yl-ethyl]benzamide] | 9.21
Cc1cccc(C(=O)NCC(c2cccnc2)N2CCOCC2)c1C (centres unmarked) [2,3-Dimethyl-N-(2-morpholin-4-yl-2-pyridin-3-yl-ethyl)-benzamide] | 5.57
Cc1cccc(C(=O)NCC(c2ccncc2)N2CCOCC2)c1C (centres unmarked) [2,3-Dimethyl-N-(2-morpholin-4-yl-2-pyridin-4-yl-ethyl)-benzamide] | 5.85
Cc1ncc(C(CNC(=O)c2cccc(Cl)c2Cl)N2CCCCC2C(C)C)cn1 (centres unmarked) [2,3-dichloro-N-(2-(2-isopropylpiperidin-1-yl)-2-(2-methylpyrimidin-5-yl)ethyl)benzamide] | 5.72
Cc1ncc(C(CNC(=O)c2cccc(Cl)c2Cl)N2CCCCC2C)cn1 (centres unmarked) [2,3-dichloro-N-(2-(2-methylpiperidin-1-yl)-2-(2-methylpyrimidin-5-yl)ethyl)benzamide] | 6.51
Cc1ncc(C(CNC(=O)c2cccc(Cl)c2Cl)N2CCCOCC2)cn1 (centres unmarked) [2,3-dichloro-N-(2-(2-methylpyrimidin-5-yl)-2-(1,4-oxazepan-4-yl)ethyl)benzamide] | 7.54
Cc1ncc(C(CNC(=O)c2cccc(Cl)c2Cl)N2CC(F)(F)C(F)(F)C2)cn1 (centres unmarked) [2,3-dichloro-N-(2-(2-methylpyrimidin-5-yl)-2-(3,3,4,4-tetrafluoropyrrolidin-1-yl)ethyl)benzamide] | 8.59
Cc1ncc(C(CNC(=O)c2cccc(Cl)c2Cl)N2CCC(C)C2)cn1 (centres unmarked) [2,3-dichloro-N-(2-(2-methylpyrimidin-5-yl)-2-(3-methylpyrrolidin-1-yl)ethyl)benzamide] | 6.00
Cc1ncc(C(CNC(=O)c2cccc(Cl)c2Cl)N2CCCC(C)C2)cn1 (centres unmarked) [2,3-dichloro-N-(2-(3-methylpiperidin-1-yl)-2-(2-methylpyrimidin-5-yl)ethyl)benzamide] | 6.77
CN(C)c1ncc(C(CNC(=O)c2cccc(Cl)c2Cl)N2CCC(F)(F)CC2)cn1 (centres unmarked) [2,3-dichloro-N-(2-(4,4-difluoropiperidin-1-yl)-2-(2-(dimethylamino)pyrimidin-5-yl)ethyl)benzamide] | 8.18

Structure (SMILES) | pIC50
O=C(NCC(c1cnc(C(F)(F)F)nc1)N1CCC(F)(F)CC1)c1cccc(Cl)c1Cl (centres unmarked) [2,3-dichloro-N-(2-(4,4-difluoropiperidin-1-yl)-2-(2-(trifluoromethyl)pyrimidin-5-yl)ethyl)benzamide] | 9.19
CC1(C)CCN(C(CNC(=O)c2cccc(Cl)c2Cl)c2cnc(C(F)(F)F)nc2)CC1 (centres unmarked) [2,3-dichloro-N-(2-(4,4-dimethylpiperidin-1-yl)-2-(2-(trifluoromethyl)pyrimidin-5-yl)ethyl)benzamide] | 5.60
O=C(NCC(c1ccc(Cl)cc1)N1CCCOCC1)c1cccc(Cl)c1Cl (centres unmarked) [2,3-dichloro-N-(2-(4-chlorophenyl)-2-(1,4-oxazepan-4-yl)ethyl)benzamide] | 7.77
O=C(NCC(c1ccc(Cl)cc1)N1CCCC1)c1cccc(Cl)c1Cl (centres unmarked) [2,3-dichloro-N-(2-(4-chlorophenyl)-24 pyrrolidin-1-yl)ethyl)benzamide] | 5.74
Cc1ncc(C(CNC(=O)c2cccc(Cl)c2Cl)N2CCC(Cl)CC2)cn1 (centres unmarked) [2,3-dichloro-N-(2-(4-chloropiperidin-1-yl)-2-(2-methylpyrimidin-5-yl)ethyl)benzamide] | 8.24
COC1CCN(C(CNC(=O)c2cccc(Cl)c2Cl)c2cnc(C)nc2)CC1 (centres unmarked) [2,3-dichloro-N-(2-(4-methoxypiperidin-1-yl)-2-(2-methylpyrimidin-5-yl)ethyl)benzamide] | 5.42
Cc1ncc(C(CNC(=O)c2cccc(Cl)c2Cl)N2CCOCC2)cn1 (centres unmarked) [2,3-dichloro-N-[2-(2-methylpyrimidin-5-yl)-2-morpholino-ethy] [2,3-Dichloro-N-[2-(2-methylpyrimidin-5-yl)-2-motpholino-ethyl]benzamide] | 7.68
Cc1ncc(C(CNC(=O)c2cccc(Cl)c2Cl)N2CCC(F)(F)CC2)cn1 (centres unmarked) [2,3-dichloro-N-[2-(4,4-difluoro-1-piperidyl)-2-(2-methylpyri] [2,3-dichloro-N-(2-(4,4-difluoropiperidin-1-yl)-2-(2-methylpyrimidin-5-yl)ethyl)benzamide] | 8.37
COc1ccc(C(CNC(=O)c2cccc(Cl)c2Cl)N2CCC(F)(F)CC2)cc1 (centres unmarked) [2,3-dichloro-N-[2-(4,4-difluoro-1-piperidyl)-2-(4-methoxyphenyl)ethyl]benzamide] | 9.22
O=C(NCC(c1cnc(C(F)(F)F)nc1)N1CCOCC1)c1cccc(Cl)c1Cl (centres unmarked) [2,3-dichloro-N-[2-morpholino-2-[2-(trifluoromethyl)pyrimidin] [2,3-Dichloro-N-[2-morpholino-2-[2-(trifluoromethyl)pyrimidin-5-yl]ethyl]benzamide] | 8.09
O=C(NCC(c1ccc(C(F)(F)F)nc1)N1CCOCC1)c1cccc(Cl)c1Cl (centres unmarked) [2,3-dichloro-N-[2-morpholino-2-[6-(trifluoromethyl)-3-pyridy] [2,3-Dichloro-N-[2-morpholino-2-[6-(trifluoromethyl)-3-pyridyl]ethyl]benzamide] | 8.34
Cc1ncc(C(CNC(=O)c2ccc(Cl)cc2Cl)N2CCC(=O)CC2)cn1 (centres unmarked) [2,4-dichloro-N-(2-(2-methylpyrimidin-5-yl)-2-(-1-yl)ethyl)benzamide] | 6.01
Cc1ncc(C(CNC(=O)c2ccc(Cl)cc2Cl)N2CCC(F)(F)CC2)cn1 (centres unmarked) [2,4-dichloro-N-(2-(4,4-difluoropiperidin-1-yl)-2-(2-methylpyrimidin-5-yl)ethyl)benzamide] | 7.36
Cc1ncc(C(CNC(=O)c2ccc(Cl)cc2Cl)N2CCC(Cl)CC2)cn1 (centres unmarked) [2,4-dichloro-N-(2-(4-chloropiperidin-1-yl)-2-(2-methylpyrimidin-5-yl)ethyl)benzamide] | 6.55
O=C(NCC(c1cnc(C(F)(F)F)nc1)N1CCOCC1)c1ccc(Cl)cc1Cl (centres unmarked) [2,4-dichloro-N-(2-morpholino-2-(2-(trifluoromethyl)pyrimidin-5-yl)ethyl)benzamide] | 7.92
Cc1ncc(C(CNC(=O)c2c(Cl)cccc2Cl)N2CCCOCC2)cn1 (centres unmarked) [2,6-dichloro-N-(2-(2-methylpyrimidin-5-yl)-2-(1,4-oxazepan-4-yl)ethyl)benzamide] | 6.13
Cc1ncc(C(CNC(=O)c2c(Cl)cccc2Cl)N2CCOCC2)cn1 (centres unmarked) [2,6-dichloro-N-(2-(2-methylpyrimidin-5-yl)-2-morpholinoethyl)benzamide] | 6.92
Cc1ncc(C(CNC(=O)c2c(F)cccc2F)N2CCOCC2)cn1 (centres unmarked) [2,6-difluoro-N-(2-(2-methylpyrimidin-5-yl)-2-morpholinoethyl)benzamide] | 5.96
Cc1ccc(C(CNC(=O)c2cc(C)ccc2Cl)N2CCOCC2)cc1 (centres unmarked) [2-Chloro-5-methyl-N-(2-morpholin-4-yl-2-p-tolyl-ethyl)-benzamide] | 7.42
Cc1ccc(Cl)c(C(=O)NCC(c2cccnc2)N2CCOCC2)c1 (centres unmarked) [2-Chloro-5-methyl-N-(2-morpholin-4-yl-2-pyridin-3-yl-ethyl)-benzamide] | 5.52
Cc1ccc(Cl)c(C(=O)NCC(c2ccncc2)N2CCOCC2)c1 (centres unmarked) [2-Chloro-5-methyl-N-(2-morpholin-4-yl-2-pyridin-4-yl-ethyl)-benzamide] | 5.57
O=C(NCC(c1ccc(C(F)(F)F)nc1)N1CCC(F)(F)CC1)c1ccccc1Cl (centres unmarked) [2-Chloro-N-[2-(4,4-difluoro-1-piperidyl)-2-[6-(trifluoromethyl)-3-pyridyl]ethyl]benzamide] | 8.74

From patent publication US9415055B2, “Cyclic amines” (H. Lundbeck A/S, priority 2012, dated 2016)
